For 100 molecules, EC50 results are on record in PubChem BioAssay AID2253 (Southern Research Specialized Biocontainment Screening …, 2010).

Structures are written as SMILES.

The test system of the assay is THP-1 viability, CellTiter-Glo luminescence, 72 h. Nature of the assay: human monocytic cell viability reduction – S. typhimurium screen hits, cytotoxicity control for Salmonella PhoP regulon inhibitors, dose response (AID 2253).
Take `Clc1ccc(Nc2ncnc3c2cnn3-c2ccccc2)cc1`: the EC50 was 30.1 µM. For `O=C(NNC(=O)c1cnccn1)c1ccc(Cl)cc1` the value was 24.5 µM. With `CCc1ccc(C(c2c(C)nn(-c3ccccc3)c2N)c2c(C)nn(-c3ccccc3)c2N)cc1`, the EC50 is 46.1 µM. For `CC(C(=O)c1ccc(-c2ccccc2)cc1)[n+]1cccc(NC(=O)c2ccccc2)c1` (stereo not given) the value was 19.6 µM.

Consider `CCCCCCCCCCCCCCCCn1cc[n+](CC(C)=O)c1`, for which the EC50 is 0.8 µM. For `OC1(c2cccc(C(F)(F)F)c2)CCN(c2ncnc3c2[nH]c2ccccc23)CC1` the value was 17.6 µM; for `COc1cccc(Nc2nc(-c3sc(NC(=O)c4ccco4)nc3C)cs2)c1`, 40.5 µM. For the molecule `COc1cc(/C=C/[N+](=O)[O-])ccc1O`, the EC50 is 12.6 µM. For `Cc1cc(C2=NNC(=NC3CC3)SC2)c(C)n1Cc1ccco1`, the EC50 is 5.69 µM. In the case of `Cc1c(C(=O)Nc2cccc(Cl)c2)c2ccccn2c1CCc1ccncc1`, the EC50 is 24.7 µM.

Consider `Oc1ccc(/C=N/NC(=S)Nc2cccnc2)c(O)c1`, for which the EC50 is 3.21 µM. In the case of `O=C(Nc1ccc(S(=O)(=O)N2CCCC2)cc1)c1ccc(CN2CCc3ccccc3C2)cc1`, the EC50 was 26.5 µM. For `Oc1ccccc1NCC(O)Cn1ccc2ccccc21` (stereo not given) the value was 28 µM; for `Cc1cccc(NC(=S)NC(NC(=O)c2ccco2)C(Cl)(Cl)Cl)c1` (stereo not given), 21.7 µM; for `Cc1ccc([N+](=O)[O-])cc1-c1ccc(/C=C(\C#N)c2[nH]nc(N)c2C#N)o1`, 5.93 µM. For `CC1(C)CC(=O)C2=C(C1)OC1=C(C(=O)CC(C)(C)C1)C2c1ccc(O)cc1O` the value was 5.36 µM. For `O=C(/C=C/c1ccccc1Cl)c1ccccc(=O)c1O` the value was 12.6 µM; for `CC1CCC(C(C)C)C(OC(=O)Cn2c(-c3ccc(Cl)cc3)[n+](C)c3ccccc32)C1` (stereo not given), 2.13 µM; for `O=C(Oc1c(Cl)cc(Cl)c2cccnc12)c1ccco1`, 11.5 µM. For `OCc1ccc(O)c2ncccc12`, the EC50 is 3.26 µM.

Take `CCN(CC(=O)NC(C)(C)C)C(=O)COc1c(Cl)cc(Cl)c2ccc(C)nc12`: the concentration for a half-maximal effect (EC50) was 37.3 µM. For `N=c1n(CCO)c2ccccc2n1Cc1ccc(Cl)cc1` the value was 41.1 µM.

Take `O=C(NCCNc1ccc([N+](=O)[O-])cc1C(F)(F)F)c1ccc(F)cc1`: the EC50 was 43.7 µM. For `COc1ccc(C)cc1C(=O)CCC(=O)Nc1ccccc1N1CCOCC1` the value was 8.33 µM. For `CCCCCCOC(=O)Sc1nc2ccccc2o1` the value was 35 µM; for `CCCCCCCNC(=O)C1(CC2CC(c3ccc(Cl)cc3)=NO2)CCNCC1` (stereo not given), 5.66 µM. With `CN1c2ccccc2C(C)(C)[C@]12C=Cc1cc(O)ccc1O2`, the EC50 was 15.4 µM. For `Nc1nonc1-n1nnc(C(=O)N/N=C/c2cc(Br)ccc2O)c1CSC1=NCCS1` the value was 1.54 µM; for `O=C(C[n+]1cc(-c2ccc(Cl)cc2)n2c1CCC2)Nc1nc(-c2ccccc2)cs1`, 43.3 µM.

`CN(C)c1ccc(O)c2c1CC1CC3[C@@H](N(C)C)C(=O)C(C(N)=O)=C(O)[C@]3(O)C(=O)C1=C2O` (stereo not given in full): the EC50 was 37 µM. The figure for `NC1=NC[C@H](Cc2ccc(O)cc2)N1CCC12CC3CC(CC(C3)C1)C2` is 10.6 µM; for `O=C(Cc1cccs1)Nc1cccc(-c2nc3cc4ccccc4cc3[nH]2)c1` it is 12.5 µM. For `COc1ccc(Nc2cc(C)c3c(O)cccc3n2)cc1` the value was 15 µM; for `O=C(Oc1c(CN2CCOCC2)cc(Cl)c2cccnc12)c1ccc(F)cc1`, 7.06 µM; for `CCCCCn1c(N)c(C(=O)NCc2cccs2)c2nc3ccccc3nc21`, 15.4 µM. As for `CCN1/C(=C/C=C/c2sc3ccccc3[n+]2CC)Sc2ccccc21`, the EC50 was 0.43 µM.

As for `O=[N+]([O-])c1cc(Cl)c(O)c2ncccc12`, the EC50 is 15 µM.

Regarding `c1cnc2c(c1)ccc1cccnc12`, the EC50 was 3.8 µM. Regarding `Oc1cc(Cl)ccc1Oc1ccc(Cl)cc1Cl`, the EC50 was 33.9 µM.

As for `CCOc1ccccc1NS(=O)(=O)c1ccc(Br)s1`, the EC50 is 40.5 µM. Turning to `COc1ccc(Nc2nc(-c3c[nH]c4ccccc34)cs2)cc1`, the EC50 was 15.6 µM.

On to `Clc1cc(Br)ccc1OCCCNCc1ccccc1`, for which the concentration giving a half-maximal response (EC50) was 22.8 µM. In the case of `COC12C(COC(N)=O)C3=C(C(=O)C(C)=C(N)C3=O)N1CC1C2N1C` (stereo not given), the EC50 is 9.05 µM. Turning to `Cc1cccc(Sc2c([N+](=O)[O-])ncn2C)c1`, the EC50 was 32 µM.

`CC1N(C)c2cc(NC(=O)c3ccco3)ccc2C1(C)C` (stereo not given): the EC50 was 7.51 µM. Take `O=C1c2cccc(OCC(=O)N3N=C(c4cccs4)CC3c3ccc(F)cc3)c2CCN1Cc1cccnc1` (stereo not given): the half-maximal effective concentration (EC50) was 47.9 µM. The figure for `O=C(CN1CCCC1)N/N=C/c1c(O)ccc2ccccc12` is 3.43 µM. In the case of `COc1ccc2ccccc2c1/C=N/NC(=O)c1sc(N)c(C#N)c1C`, the EC50 is 30.1 µM.

In the case of `Oc1ccc(/C=N/Nc2ncc(Br)cn2)c(O)c1`, the EC50 is 3.1 µM. `Nc1ncn([C@@H]2O[C@H](CO)[C@@H](O)[C@H]2O)c(=O)n1`: the concentration for a half-maximal effect (EC50) was 17.4 µM. For `O=[N+]([O-])c1cc(F)c2cccnc2c1O` the value was 30.5 µM; for `CCCC(=O)NC(c1cccs1)c1cc([N+](=O)[O-])c2cccnc2c1O` (stereo not given), 7.09 µM. On to `O=C1c2ccccc2NC(c2ccc(-c3cccc([N+](=O)[O-])c3)o2)N1O` (stereo not given), for which the EC50 was 6.61 µM. For `CCCCCC(CC(=O)NO)C(=O)NC(C(=O)N1CCCC1CO)C(C)C` (stereo not given), the EC50 is 36.2 µM. For `C#CC(=O)N(c1cc(OC)ccc1OC)C(C(=O)NC1CCCC1)c1cccs1` (stereo not given) the value was 1.42 µM; for `CCOC(=O)N1CCN(C(c2cccnc2)c2ccc3cccnc3c2O)CC1` (stereo not given), 9.3 µM; for `O=C1c2ccccc2NC(c2ccc(-c3cccc(Cl)c3)o2)N1O` (stereo not given), 24.6 µM. For `CCOc1ccc(Nc2c3ccccc3nc3ccccc23)cc1` the value was 1.24 µM. Take `O=C(NC(NC(=S)Nc1ccc(Cl)c(Cl)c1)C(Cl)(Cl)Cl)c1ccco1` (stereo not given): the concentration giving a half-maximal response (EC50) is 23.5 µM. For `COc1cccc(/C=N\NC(=O)Cn2nnc3ccccc32)c1O` the value was 10.9 µM; for `FC(F)(F)c1ccc2c(c1)N(CCCN1CCN(CCCl)CC1)c1ccccc1S2`, 20.6 µM.

As for `OC(CNCCc1ccccc1)COc1ccc(OCC(O)CNCCc2ccccc2)cc1` (stereo not given), the EC50 is 6 µM.

As for `N#C/C(=C\c1c(Cl)cccc1Cl)c1nc2ccccc2[nH]1`, the concentration for a half-maximal effect (EC50) is 27.9 µM. For `Cc1nc([N+](=O)[O-])c(Br)n1CC(=O)c1ccccc1` the value was 17.7 µM; for `Cc1ccc(C(=O)N/N=C/c2ccc([N+](=O)[O-])s2)cc1`, 12.3 µM. Consider `S=C(NN=C1C2CC3CC(C2)CC1C3)Nc1ccccc1`, for which the EC50 was 30.4 µM. The figure for `CC(C)COc1ccc(Cc2cnc(N)nc2N)cc1` is 36.9 µM; for `Cc1ccccc1Cn1c(=N)n(CC(=O)c2ccco2)c2ccccc21` it is 22.8 µM. Turning to `COc1cc([N+](=O)[O-])cc(/C=N\NC(=O)C2COc3ccccc3O2)c1O` (stereo not given), the concentration for a half-maximal effect (EC50) is 19.6 µM. For `C(=Nc1ccc(Nc2ccccc2)cc1)c1ccc2ccccc2c1` the value was 25.8 µM; for `c1ccc(CNc2nc(N3CCN(Cc4ccccc4)CC3)nc3ccccc23)cc1`, 21.6 µM; for `Cc1cc(C2=NNC(=NC3CC3)SC2)c(C)n1-c1ccccc1`, 46.9 µM. The figure for `Cc1ccc(C)c(/C=C/C(=O)c2ccccc(=O)c2O)c1` is 9.58 µM; for `O=c1c(Br)c(Br)cnn1-c1ccccc1` it is 1.27 µM; for `COc1ccc(N(C(=O)CCl)C(C(=O)NCCc2ccccc2)c2cccs2)cc1` (stereo not given) it is 3.46 µM. The figure for `C[C@H]1c2cccc(O)c2C(O)=C2C(=O)C3(O)C(O)=C(C(N)=O)C(=O)[C@@H](N(C)C)[C@@H]3[C@@H](O)[C@@H]21` (stereo not given in full) is 34.4 µM.

Consider `CSc1ccc(C(=O)/C=C/c2ccc(N)cc2)cc1`, for which the concentration giving a half-maximal response (EC50) is 21.7 µM.

For the molecule `O=C(Nc1ccc(Cl)c(Cl)c1)Nc1ccccc1O`, the EC50 was 21.1 µM. As for `Oc1ccccc1Nc1nc(NCc2ccco2)c2ccccc2n1`, the EC50 was 13.2 µM. For `COc1ccccc1/C=C1\CCCC2=C1Nc1nnnn1C2c1ccccc1OC` (stereo not given) the value was 19.6 µM; for `CC(CO)(CO)NCc1ccc(-c2ccccc2)cc1`, 15 µM. For `CCc1nn2cc(C(=O)c3cc(Cl)ccc3O)cnc2c1-c1ccc(F)cc1` the value was 38.3 µM; for `Cc1ccc(-c2csc(NC(=O)C[n+]3cc(-c4ccc(C)cc4)n4c3CCC4)n2)cc1`, 8.54 µM; for `CCCCOc1ccc(S(=O)(=O)NNC(=O)C2Cc3c(ccc4ccccc34)O2)cc1` (stereo not given), 42.6 µM. For `COc1ccccc1N1CCN(c2ccc(-c3ccccc3)nn2)CC1` the value was 2.61 µM.

In the case of `CC1=NN(c2ccc(Cl)cc2)C(=O)C1C(c1cccc(O)c1)c1c(C)[nH]n(-c2ccc(Cl)cc2)c1=O` (stereo not given), the EC50 was 35.5 µM. The figure for `CCN(CC)S(=O)(=O)c1cccc(NC(=O)Nc2cccc(C(F)(F)F)c2)c1` is 5.09 µM. With `COc1ccc(C(C[N+](=O)[O-])C2(c3ccc(OC)c(OC)c3)C(=O)c3ccccc3C2=O)cc1` (stereo not given), the EC50 is 12.5 µM. Turning to `Cc1[nH]c2ccccc2c1C1=NNC(=Nc2ccc(F)cc2)SC1`, the EC50 was 12.6 µM. `Oc1ccc(CN2CCN(Cc3ccccc3)CC2)c2cccnc12`: the EC50 was 12.9 µM. On to `COc1ccc(C(=O)Oc2c(CN3CCOCC3)cc(Cl)c3cccnc23)cc1`, for which the EC50 was 6.67 µM. The figure for `CNC[C@H](Cc1ccccc1)NC[C@@H](Cc1cccc2ccccc12)NCCc1ccc(C)cc1` is 4.75 µM. For `CN1/C(=C\C=N\NC(=O)c2ccccc2Br)C(C)(C)c2ccccc21` the value was 32.2 µM; for `Nc1ccc2c(c1)C(=O)C(=O)c1ccccc1-2`, 2.23 µM. For `O=C1C(Nc2ccccc2)=C/C(=N/S(=O)(=O)c2cccs2)c2ccccc21`, the EC50 was 1.5 µM. The figure for `CCCCCCCCCCOC(=O)Cn1c(COc2ccc(Cl)cc2)[n+](C)c2ccccc21` is 2.05 µM; for `Cc1cc(C(=O)N/N=C/c2cc(Br)cc(Br)c2OC(=O)c2ccccc2)n[nH]1` it is 7.53 µM. The figure for `O=c1c2c(-c3ccccc3)csc2nc2c3ccccc3c(NCCN3CCOCC3)nn12` is 3.11 µM; for `O=C(Nc1nnc(-c2cccs2)o1)c1cccc(Oc2ccccc2)c1` it is 19.6 µM. Consider `Clc1ccc(OCCn2ccnc2)c2ccccc12`, for which the EC50 is 43.5 µM.
